ChEMBL document CHEMBL1201862, “PubChem BioAssay data set” (2004)
Activity calls are given as the source filed them.

How the values were obtained:
[1] = molecular target: G-protein coupled receptor 55 (Homo sapiens, UniProt Q9Y2T6); test: inhibition of LPI-stimulated GPR55 beta-arrestin translocation – imaging, U2OS, beta-arrestin-GFP, LPI agonist, primary screen (AID 2013); format: functional;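 also: antagonist potency measured as reduced agonist-driven arrestin aggregation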
[2] = molecular target: Beta-galactosidase (Escherichia coli, UniProt Q8VNN2); test: detection-enzyme interference by beta-gal modulators – biochemical, E. coli enzyme, set 3, artefact control for CCR6 antagonist project, dose response (AID 504712); format: functional
Chain of Beta-galactosidase (Q8VNN2 whole entry): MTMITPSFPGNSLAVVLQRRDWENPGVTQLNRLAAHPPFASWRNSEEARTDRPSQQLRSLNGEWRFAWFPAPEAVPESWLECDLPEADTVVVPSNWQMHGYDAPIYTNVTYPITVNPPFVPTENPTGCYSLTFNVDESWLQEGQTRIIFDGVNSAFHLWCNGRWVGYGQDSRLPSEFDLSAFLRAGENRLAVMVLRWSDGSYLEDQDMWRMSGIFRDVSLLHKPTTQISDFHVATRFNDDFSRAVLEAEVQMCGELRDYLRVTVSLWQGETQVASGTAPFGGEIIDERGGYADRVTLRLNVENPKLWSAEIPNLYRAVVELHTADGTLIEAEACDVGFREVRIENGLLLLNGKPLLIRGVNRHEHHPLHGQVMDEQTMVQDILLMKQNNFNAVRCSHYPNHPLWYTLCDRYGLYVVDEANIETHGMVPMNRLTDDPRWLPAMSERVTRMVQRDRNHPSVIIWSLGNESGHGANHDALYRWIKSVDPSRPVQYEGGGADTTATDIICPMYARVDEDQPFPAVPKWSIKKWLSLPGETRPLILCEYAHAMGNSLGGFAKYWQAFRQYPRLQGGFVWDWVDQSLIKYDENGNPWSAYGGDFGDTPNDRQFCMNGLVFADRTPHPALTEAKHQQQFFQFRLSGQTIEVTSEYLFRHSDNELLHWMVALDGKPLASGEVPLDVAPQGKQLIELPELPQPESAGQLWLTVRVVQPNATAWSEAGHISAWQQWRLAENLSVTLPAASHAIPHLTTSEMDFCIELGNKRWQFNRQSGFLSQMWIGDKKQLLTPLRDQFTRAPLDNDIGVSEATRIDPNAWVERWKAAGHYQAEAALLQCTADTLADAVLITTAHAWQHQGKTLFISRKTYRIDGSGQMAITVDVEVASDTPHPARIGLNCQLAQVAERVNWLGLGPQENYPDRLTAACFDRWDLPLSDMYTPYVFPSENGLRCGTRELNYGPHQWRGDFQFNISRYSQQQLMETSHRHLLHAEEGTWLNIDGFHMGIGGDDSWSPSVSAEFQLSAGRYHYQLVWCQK

[3] = molecular target: T1, Bcl-2-related protein A1 (Mus musculus, UniProt Q07440); format: functional;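 also: confirmatory dose–response counterscreen on Bfl-1, used to check hits from a UBC13 polyubiquitin inhibitor campaign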
T1 sequence (Q07440 whole entry): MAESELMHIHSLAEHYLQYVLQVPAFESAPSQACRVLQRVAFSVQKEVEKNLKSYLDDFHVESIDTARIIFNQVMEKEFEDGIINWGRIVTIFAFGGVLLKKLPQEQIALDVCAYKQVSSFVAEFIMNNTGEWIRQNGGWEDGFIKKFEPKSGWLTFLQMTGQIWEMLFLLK

[4] = molecular target: T2, Ubiquitin-conjugating enzyme E2 N (Homo sapiens, UniProt P61088); format: functional
T2 sequence (P61088 whole entry): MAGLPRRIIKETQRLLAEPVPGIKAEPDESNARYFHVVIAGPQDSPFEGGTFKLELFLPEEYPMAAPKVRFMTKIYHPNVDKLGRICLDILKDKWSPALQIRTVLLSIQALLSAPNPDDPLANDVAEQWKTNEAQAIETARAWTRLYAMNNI

[5] = molecular target: T2, Ubiquitin-conjugating enzyme E2 N; format: functional; remark: listed apart in the source
[6] = molecular target: T3, Aminopeptidase N (Plasmodium falciparum FcB1/Columbia, UniProt O96935); test: malaria alanyl aminopeptidase activity blockers – biochemical, fluorogenic H-Leu-NHMec substrate, 1536-well (AID 1445); design: species or system Plasmodium falciparum 3D7, 3D7
T3 sequence (O96935 whole entry): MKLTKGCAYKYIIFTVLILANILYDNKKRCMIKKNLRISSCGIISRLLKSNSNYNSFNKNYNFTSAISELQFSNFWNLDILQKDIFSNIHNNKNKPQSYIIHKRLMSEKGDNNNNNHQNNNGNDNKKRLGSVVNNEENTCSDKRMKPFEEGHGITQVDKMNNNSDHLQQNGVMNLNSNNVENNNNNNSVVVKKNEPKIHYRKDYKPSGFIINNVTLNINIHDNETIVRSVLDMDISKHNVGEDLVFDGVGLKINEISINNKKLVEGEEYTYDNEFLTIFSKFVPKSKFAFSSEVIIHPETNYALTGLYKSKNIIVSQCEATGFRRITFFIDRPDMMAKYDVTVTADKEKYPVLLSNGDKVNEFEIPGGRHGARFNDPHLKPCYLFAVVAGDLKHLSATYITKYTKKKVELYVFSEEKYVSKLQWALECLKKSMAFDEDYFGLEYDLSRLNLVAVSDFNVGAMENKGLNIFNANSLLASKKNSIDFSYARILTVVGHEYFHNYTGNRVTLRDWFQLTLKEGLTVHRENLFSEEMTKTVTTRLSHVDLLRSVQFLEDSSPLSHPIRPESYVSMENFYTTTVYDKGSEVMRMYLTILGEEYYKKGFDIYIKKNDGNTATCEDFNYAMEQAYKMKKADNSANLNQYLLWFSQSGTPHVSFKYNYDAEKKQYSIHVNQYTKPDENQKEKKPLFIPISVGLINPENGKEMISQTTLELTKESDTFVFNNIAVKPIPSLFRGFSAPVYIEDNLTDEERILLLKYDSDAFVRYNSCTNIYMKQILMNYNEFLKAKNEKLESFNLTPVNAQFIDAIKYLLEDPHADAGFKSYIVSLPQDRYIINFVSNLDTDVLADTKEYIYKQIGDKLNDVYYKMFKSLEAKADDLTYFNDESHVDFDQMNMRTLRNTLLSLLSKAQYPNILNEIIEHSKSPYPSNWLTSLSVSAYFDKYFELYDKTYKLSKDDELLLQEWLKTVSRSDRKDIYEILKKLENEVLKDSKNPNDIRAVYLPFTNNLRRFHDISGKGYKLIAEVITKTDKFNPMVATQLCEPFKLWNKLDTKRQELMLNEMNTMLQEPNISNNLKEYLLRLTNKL

[7] = molecular target: Large T antigen (Simian virus 40, UniProt P03070); format: functional, Betapolyomavirus macacae;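 also: Confirmatory-stage PubChem screen for compounds that inhibit SV40 T antigen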
Chain of Large T antigen (P03070 whole entry): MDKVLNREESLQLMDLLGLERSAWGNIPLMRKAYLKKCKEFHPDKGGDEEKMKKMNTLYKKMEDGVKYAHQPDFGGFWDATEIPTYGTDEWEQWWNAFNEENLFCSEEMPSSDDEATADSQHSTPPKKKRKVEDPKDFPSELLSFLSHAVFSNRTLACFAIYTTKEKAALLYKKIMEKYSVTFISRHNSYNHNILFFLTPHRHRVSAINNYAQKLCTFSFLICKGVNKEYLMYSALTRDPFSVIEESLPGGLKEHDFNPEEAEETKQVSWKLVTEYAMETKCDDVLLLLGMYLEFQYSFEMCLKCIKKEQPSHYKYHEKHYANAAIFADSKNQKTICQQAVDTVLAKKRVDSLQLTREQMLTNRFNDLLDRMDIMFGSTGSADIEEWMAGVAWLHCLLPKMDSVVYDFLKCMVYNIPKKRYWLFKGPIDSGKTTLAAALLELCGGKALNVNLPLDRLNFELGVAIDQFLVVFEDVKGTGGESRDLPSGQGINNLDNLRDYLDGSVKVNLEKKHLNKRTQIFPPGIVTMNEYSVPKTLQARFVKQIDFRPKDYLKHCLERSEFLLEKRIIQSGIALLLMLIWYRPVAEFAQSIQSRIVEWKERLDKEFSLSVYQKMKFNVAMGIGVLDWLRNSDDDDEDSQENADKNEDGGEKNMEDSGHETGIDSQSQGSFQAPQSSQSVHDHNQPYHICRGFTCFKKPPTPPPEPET

[8] = molecular target: T4, DNA dC->dU-editing enzyme APOBEC-3A (Homo sapiens, UniProt P31941); test: Dose Response confirmation of small molecule APOBEC3A DNA Deaminase Inhibitors via a fluorescence-based single-stranded DNA deaminase assay. [Related pubchem assays (depositor defined):AID493011, AID493024]; format: functional
T4 sequence (P31941 whole entry): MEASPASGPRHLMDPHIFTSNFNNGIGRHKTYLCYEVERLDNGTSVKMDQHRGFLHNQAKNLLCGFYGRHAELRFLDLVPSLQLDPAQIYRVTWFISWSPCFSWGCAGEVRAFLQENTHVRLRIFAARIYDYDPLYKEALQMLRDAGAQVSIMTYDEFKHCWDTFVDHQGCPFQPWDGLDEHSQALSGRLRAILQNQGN

[9] = molecular target: T5, DNA dC->dU-editing enzyme APOBEC-3G (Homo sapiens, UniProt Q9HC16); format: functional
T5 sequence (Q9HC16 whole entry): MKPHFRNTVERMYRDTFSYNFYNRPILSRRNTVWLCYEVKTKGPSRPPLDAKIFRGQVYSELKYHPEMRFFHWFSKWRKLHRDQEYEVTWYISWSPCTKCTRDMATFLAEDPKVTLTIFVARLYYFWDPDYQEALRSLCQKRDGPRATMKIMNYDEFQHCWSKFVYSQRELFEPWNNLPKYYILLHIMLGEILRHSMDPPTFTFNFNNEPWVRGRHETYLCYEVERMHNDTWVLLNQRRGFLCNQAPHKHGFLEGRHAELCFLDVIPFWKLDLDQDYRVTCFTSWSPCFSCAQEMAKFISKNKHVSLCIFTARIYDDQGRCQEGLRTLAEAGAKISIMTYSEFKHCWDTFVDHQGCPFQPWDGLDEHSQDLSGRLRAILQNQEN

[10] = molecular target: Glyceraldehyde-3-phosphate dehydrogenase (Homo sapiens, UniProt P04406)
Chain of Glyceraldehyde-3-phosphate dehydrogenase (P04406 whole entry): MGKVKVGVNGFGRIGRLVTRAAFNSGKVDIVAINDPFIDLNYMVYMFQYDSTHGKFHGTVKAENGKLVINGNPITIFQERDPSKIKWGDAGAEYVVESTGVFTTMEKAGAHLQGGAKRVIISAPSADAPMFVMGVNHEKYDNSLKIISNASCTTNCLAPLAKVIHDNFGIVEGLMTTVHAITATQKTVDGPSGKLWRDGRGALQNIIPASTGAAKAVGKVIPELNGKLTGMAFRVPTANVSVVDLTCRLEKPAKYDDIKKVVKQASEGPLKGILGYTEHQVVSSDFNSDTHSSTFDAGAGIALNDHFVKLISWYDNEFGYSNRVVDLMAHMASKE

[11] = molecular target: T6, Alkaline phosphatase, tissue-nonspecific isozyme (Homo sapiens, UniProt P05186); test: potency against alkaline phosphatase TNAP – biochemical, luminescent, dose response, SAR follow-up (AID 1056)
T6 sequence (P05186 whole entry): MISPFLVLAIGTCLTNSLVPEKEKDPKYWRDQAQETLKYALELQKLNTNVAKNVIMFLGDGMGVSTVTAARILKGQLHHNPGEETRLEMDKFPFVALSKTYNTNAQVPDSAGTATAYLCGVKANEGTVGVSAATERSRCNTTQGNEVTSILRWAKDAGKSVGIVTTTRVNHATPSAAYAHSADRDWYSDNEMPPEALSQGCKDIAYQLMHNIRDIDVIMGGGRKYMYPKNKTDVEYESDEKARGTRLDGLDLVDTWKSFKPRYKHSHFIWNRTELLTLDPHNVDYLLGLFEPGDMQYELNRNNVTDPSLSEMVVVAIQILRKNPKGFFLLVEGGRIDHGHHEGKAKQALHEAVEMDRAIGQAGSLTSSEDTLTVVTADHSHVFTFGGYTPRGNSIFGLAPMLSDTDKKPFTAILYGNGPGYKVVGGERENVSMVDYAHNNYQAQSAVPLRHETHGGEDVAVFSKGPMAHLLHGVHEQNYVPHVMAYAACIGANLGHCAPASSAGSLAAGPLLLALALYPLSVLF

[12] = molecular target: Luciferin 4-monooxygenase (Photinus pyralis, UniProt P08659); test: Counter Screen for Luciferase-based Assay Positives. [Related pubchem assays: 620, 618, 411 ]
Chain of Luciferin 4-monooxygenase (P08659 whole entry): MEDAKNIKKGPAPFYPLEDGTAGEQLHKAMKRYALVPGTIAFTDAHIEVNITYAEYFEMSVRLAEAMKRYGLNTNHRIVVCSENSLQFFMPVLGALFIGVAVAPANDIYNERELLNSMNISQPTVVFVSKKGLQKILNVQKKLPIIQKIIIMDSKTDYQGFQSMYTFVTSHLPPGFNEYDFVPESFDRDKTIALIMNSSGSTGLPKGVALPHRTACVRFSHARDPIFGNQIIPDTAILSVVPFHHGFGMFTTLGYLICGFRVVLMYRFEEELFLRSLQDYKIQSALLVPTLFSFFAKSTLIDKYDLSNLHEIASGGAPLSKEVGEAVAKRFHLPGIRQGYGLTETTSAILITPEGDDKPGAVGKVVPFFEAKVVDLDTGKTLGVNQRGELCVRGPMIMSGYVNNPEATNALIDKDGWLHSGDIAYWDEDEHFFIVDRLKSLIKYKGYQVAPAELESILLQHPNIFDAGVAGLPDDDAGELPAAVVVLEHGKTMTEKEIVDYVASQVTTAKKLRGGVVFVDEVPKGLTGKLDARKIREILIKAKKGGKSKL

[13] = system: HT-1080; test: HT1080 cell viability loss – fluorescence readout (AID 620); format: functional, cell-based; conditions: Homo sapiens
[14] = molecular target: T7, Heat shock factor protein 1 (Mus musculus, UniProt P38532); test: enhancement of HSF1-driven luciferase signal – cell-based, NIH3T3, luminescence, dose retest, confirmation (AID 435004); format: functional;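 also: stress induced by proteasome inhibitor MG132 added 30 min after compound; luciferase reporter driven by HSF1 response element in NIH3T3 cells; actives raise luminescence as potentiators of the MG132 stress response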
T7 sequence (P38532 whole entry): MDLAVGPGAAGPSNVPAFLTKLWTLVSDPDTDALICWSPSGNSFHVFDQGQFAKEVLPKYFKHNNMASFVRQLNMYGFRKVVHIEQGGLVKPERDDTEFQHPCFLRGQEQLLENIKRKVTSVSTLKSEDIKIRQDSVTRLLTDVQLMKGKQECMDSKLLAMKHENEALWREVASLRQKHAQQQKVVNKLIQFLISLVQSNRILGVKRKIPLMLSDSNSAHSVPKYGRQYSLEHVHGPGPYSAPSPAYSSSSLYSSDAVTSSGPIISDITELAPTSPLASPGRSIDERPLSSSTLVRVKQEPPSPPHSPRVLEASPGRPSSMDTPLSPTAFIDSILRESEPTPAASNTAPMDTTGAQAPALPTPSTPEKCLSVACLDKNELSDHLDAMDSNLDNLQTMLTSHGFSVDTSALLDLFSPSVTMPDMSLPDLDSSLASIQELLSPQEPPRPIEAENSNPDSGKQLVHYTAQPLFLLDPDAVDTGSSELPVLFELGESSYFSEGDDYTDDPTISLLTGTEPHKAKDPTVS

[15] = molecular target: T8, Protein skinhead-1 (Caenorhabditis elegans, UniProt P34707); format: functional
T8 sequence (P34707 whole entry): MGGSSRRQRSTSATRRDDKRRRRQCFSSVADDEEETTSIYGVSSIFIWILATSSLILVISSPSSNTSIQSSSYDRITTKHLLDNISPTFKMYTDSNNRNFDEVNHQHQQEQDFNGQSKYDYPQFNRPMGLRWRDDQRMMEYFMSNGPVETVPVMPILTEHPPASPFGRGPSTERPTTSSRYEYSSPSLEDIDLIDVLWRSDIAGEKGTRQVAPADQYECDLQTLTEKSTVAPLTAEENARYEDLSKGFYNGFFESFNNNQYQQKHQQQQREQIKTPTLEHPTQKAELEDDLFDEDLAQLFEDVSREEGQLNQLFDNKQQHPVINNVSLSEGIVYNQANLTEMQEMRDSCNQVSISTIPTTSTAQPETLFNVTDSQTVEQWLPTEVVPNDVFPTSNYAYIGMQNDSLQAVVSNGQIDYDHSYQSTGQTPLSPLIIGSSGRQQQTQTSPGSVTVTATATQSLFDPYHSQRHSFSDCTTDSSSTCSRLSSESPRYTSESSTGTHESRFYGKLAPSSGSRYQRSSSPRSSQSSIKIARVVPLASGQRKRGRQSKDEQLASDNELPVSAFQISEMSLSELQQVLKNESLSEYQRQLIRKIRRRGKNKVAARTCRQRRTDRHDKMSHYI

[16] = Trypanosoma cruzi growth suppression in host cells – NIH3T3 host cells, beta-gal luminescence, confirmation (AID 2044); format: functional, cell-based;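 also: intracellular parasites grown in NIH/3T3 mouse fibroblasts as host cells; luminescent beta-galactosidase reporter signal from transgenic T. cruzi replicating inside host cells; inhibitors lower the luminescence signal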
[17] = NIH3T3 cell viability loss – ATP luminescence, mouse fibroblasts, counter-screen, dose response (AID 2010); format: functional, cell-based;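 also: cells exposed to compound for about 90 hours before reading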
[18] = molecular target: Genome polyprotein (dengue virus type 2, UniProt P29990); test: flavivirus cap methylation enzyme inhibition – biochemical, confirmation dose response, primary screen (AID 588689); format: functional
Chain of Genome polyprotein (P29990 2492-3391 limits assumed): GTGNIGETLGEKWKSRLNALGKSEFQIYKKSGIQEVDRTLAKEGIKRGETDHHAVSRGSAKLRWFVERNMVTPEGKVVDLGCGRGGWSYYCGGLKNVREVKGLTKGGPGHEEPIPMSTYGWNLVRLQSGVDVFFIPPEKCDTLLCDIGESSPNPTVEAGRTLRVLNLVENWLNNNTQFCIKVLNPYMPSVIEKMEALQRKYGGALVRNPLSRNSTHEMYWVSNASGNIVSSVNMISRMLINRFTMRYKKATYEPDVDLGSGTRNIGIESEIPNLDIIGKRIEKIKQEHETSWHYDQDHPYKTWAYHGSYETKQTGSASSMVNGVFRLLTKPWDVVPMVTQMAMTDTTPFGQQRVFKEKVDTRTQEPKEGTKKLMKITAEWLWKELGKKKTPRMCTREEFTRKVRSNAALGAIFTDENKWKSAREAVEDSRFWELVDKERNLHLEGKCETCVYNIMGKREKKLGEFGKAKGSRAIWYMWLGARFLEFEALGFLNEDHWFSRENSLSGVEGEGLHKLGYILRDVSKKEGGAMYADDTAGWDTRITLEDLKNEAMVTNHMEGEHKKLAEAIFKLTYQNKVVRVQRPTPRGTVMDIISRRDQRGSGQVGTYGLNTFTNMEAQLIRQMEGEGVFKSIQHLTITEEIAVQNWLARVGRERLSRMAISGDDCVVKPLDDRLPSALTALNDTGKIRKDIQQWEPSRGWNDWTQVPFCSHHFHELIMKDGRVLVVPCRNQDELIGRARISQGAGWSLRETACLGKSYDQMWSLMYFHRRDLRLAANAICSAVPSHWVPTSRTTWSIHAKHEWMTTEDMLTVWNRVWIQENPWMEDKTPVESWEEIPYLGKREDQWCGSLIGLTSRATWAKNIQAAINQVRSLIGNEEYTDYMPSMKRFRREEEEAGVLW

[19] = THP-1 cell cytotoxicity, dose response, cytotoxicity control for non-replicating M. tuberculosis project (AID 489025); format: functional
[20] = molecular target: T4, DNA dC->dU-editing enzyme APOBEC-3A; test: A3A deaminase inhibition for selectivity – biochemical, dose response (AID 504722); format: functional
[21] = molecular target: T5, DNA dC->dU-editing enzyme APOBEC-3G; test: Dose Response confirmation of small molecule APOBEC3G DNA Deaminase Inhibitors via a fluorescence-based single-stranded DNA deaminase assay. [Related pubchem assays (depositor defined):AID493012, AID493028]; format: functional

Chain of G-protein coupled receptor 55 (Q9Y2T6 whole entry): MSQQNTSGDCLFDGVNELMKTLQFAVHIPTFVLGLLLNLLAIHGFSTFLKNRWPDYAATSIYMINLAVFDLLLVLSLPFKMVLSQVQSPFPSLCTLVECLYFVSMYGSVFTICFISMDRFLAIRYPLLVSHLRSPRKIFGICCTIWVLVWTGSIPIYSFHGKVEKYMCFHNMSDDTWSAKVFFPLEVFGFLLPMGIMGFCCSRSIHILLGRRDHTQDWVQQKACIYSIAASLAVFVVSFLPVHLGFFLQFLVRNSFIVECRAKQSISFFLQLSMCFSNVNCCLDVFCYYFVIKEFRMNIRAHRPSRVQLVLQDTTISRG

In the case of `O=C(Nc1ccccc1Cl)c1ccccc1Oc1ccc(C(F)(F)F)cc1[N+](=O)[O-]`, the IC50 [1] is reported as 3.31 µM (active) and the IC50 [2] is reported as > 66.6 µM (inactive).
With `CC(=O)c1ccc(OCC(O)CN2CCN(CCN3C(=O)c4cccc5cccc(c45)C3=O)CC2)cc1` (stereo unspecified) the IC50 [3] was > 20 µM (inactive), the IC50 [4] was 4.79 µM (active) and the IC50 [5] was 4.17 µM (active).
With `O=C(O)c1cc(S(=O)(=O)Nc2ccc3oc(=O)sc3c2)ccc1O` the IC50 [6] was 70.9 µM (active) and the IC50 [7] was 33.3 µM (active).
With `COc1ccc(-c2nnc(SCC(=O)Nc3cc(S(=O)(=O)N4CCCCC4)ccc3Cl)n2N)cc1` the IC50 [6] was 39.3 µM (active).
In the case of `COc1ccc(C(CC(=O)N2CCOCC2)c2c(OC)cc(OC)c3c(-c4ccccc4)cc(=O)oc23)cc1` (stereo unspecified), the IC50 [8] is reported as 17 µM (active) and the IC50 [9] is reported as 50.9 µM (active).
In the case of `COc1ccc(Cc2nnc(N3C(=O)c4ccccc4C3=O)[nH]2)cc1`, the IC50 [10] is reported as > 100 µM (not active) and the IC50 [11] is reported as > 100 µM (inactive).
With `CCc1cccc(NC(=O)C[n+]2c3n(c4ccc(C(F)(F)F)cc42)CCCCC3)c1` the IC50 [8] was 2.69 µM (active) and the IC50 [9] was 5.22 µM (active).
In the case of `CN1CCN(C(=O)CCN2C(=O)/C(=C/c3ccccc3Cl)SC2=S)CC1`, the IC50 [3] is reported as > 20 µM (inactive), the IC50 [4] is reported as 17.8 µM (active) and the IC50 [5] is reported as > 20 µM (inactive).
In the case of `CCCc1cc(C(=O)Nc2nccs2)cs1`, the EC50 [12] is reported as < 0.2 µM (active), the EC50 [13] is reported as > 50 µM (not active) and the EC50 [14] is reported as > 260 µM (inconclusive). For the same compound, the IC50 [15] was > 100 µM (inactive).
For `O=C(COc1ccccc1/C=C\c1nc(O)nc(O)c1[N+](=O)[O-])Nc1ccccc1`, the IC50 [6] was 42.9 µM (active), the EC50 [16] was > 60 µM (not active) and the EC50 [17] was > 60 µM (not active). The IC50 [18] was 39.9 µM (active).
In the case of `COc1ccc(O)c(C(=O)CC(=O)c2ccc(F)cc2)c1`, the EC50 [12] is reported as 0.35 µM (active), the EC50 [13] is reported as > 50 µM (not active) and the CC50 [19] is reported as > 40 µM (active).
In the case of `Cc1ccc(NS(=O)(=O)c2ccc3[nH]c(=O)c(=O)[nH]c3c2)cc1Cl`, the IC50 [6] is reported as 41.9 µM (active).
For `CC(=O)Nc1nc(SCCCc2ccccc2)n[nH]1`, the IC50 [10] was > 100 µM (not active) and the IC50 [11] was 6 µM (active).
With `COc1ccccc1NC(=O)CN1CCC(n2nnc3cc(F)ccc32)CC1` the IC50 [3] was > 20 µM (inactive), the IC50 [4] was 15.4 µM (active) and the IC50 [5] was 17.8 µM (active).
For `COc1cc(C2Nn3c(nnc3-c3ccccc3OC)S2)ccc1O` (stereo unspecified), the IC50 [20] was > 100 µM (inactive) and the IC50 [21] was 3.57 µM (active).
For `CCN(CC)C(=O)c1ncn(C)c1C(=O)N(CC)CC`, the IC50 [8] was 3.51 µM (active) and the IC50 [9] was 3.23 µM (active).
For `O=[N+]([O-])c1ccc(/C=N/n2c(S)nnc2-c2cccnc2)cc1`, the IC50 [20] was > 100 µM (inactive) and the IC50 [21] was 2.3 µM (active).
With `O=C1OC(c2ccc(O)cc2)(c2ccc(O)cc2)c2ccccc21` [PHENOLPHTHALEIN] the IC50 [1] was 6.67 µM (active).
